Where “and” joins values, the source holds several entries; their conditions need not be identical. Equal values may be shown once.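 Tested at 5 concentrations; 48 h exposure; 96-well plates; endpoints linearly interpolated, else capped at highest concentration. Abbreviation: GI50, concentration required for 50% inhibition of growth. At the TGI there is no net growth.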
Assays:
Test in all cases: NCI tumour cell line growth inhibition, 48 h
UO-31 renal = test system: UO-31 renal
SW-620 colon = test system: SW-620 colon
NCI-H460 lung = test system: NCI-H460 lung
SN12C renal = test system: SN12C renal
OVCAR-4 ovarian = test system: OVCAR-4 ovarian
CCRF-CEM leukemia = test system: CCRF-CEM leukemia
HOP-62 NSCLC = test system: HOP-62 NSCLC
NCI-H23 lung = test system: NCI-H23 lung
MOLT-4 leukemia = test system: MOLT-4 leukemia
OVCAR-5 ovarian = test system: OVCAR-5 ovarian
MDA-MB-435 = test system: MDA-MB-435

For `O=C(O)C1=C(CO)Oc2cc3c(cc2C1c1ccc2c(c1)OCO2)OCO3` (centres undefined), the TGI (UO-31 renal) was over 100 µM, the TGI (SW-620 colon) was over 100 µM and the TGI (NCI-H460 lung) was over 100 µM. It also gave a TGI (SN12C renal) of over 100 µM, a TGI (OVCAR-4 ovarian) of over 100 µM and a TGI (CCRF-CEM leukemia) of over 100 µM. For the same compound, the TGI (HOP-62 NSCLC) was over 100 µM, the TGI (NCI-H23 lung) was over 100 µM and the TGI (MOLT-4 leukemia) was over 100 µM.

With `Nc1[nH]c(=O)nc2c1cnn2COCCO` the TGI (UO-31 renal) was over 100 µM, the TGI (SW-620 colon) was over 100 µM and the TGI (NCI-H460 lung) was over 100 µM. The TGI (SN12C renal) was over 100 µM, the TGI (OVCAR-4 ovarian) was over 100 µM and the TGI (CCRF-CEM leukemia) was over 100 µM. For the same compound, the TGI (OVCAR-5 ovarian) was 73.6 µM, the TGI (NCI-H23 lung) was 53.2 µM and the TGI (MOLT-4 leukemia) was over 100 µM.

For `C/C=C\C1OC1(C)c1cc(=O)c2c(C)cc3c(c2o1)C(=O)c1c(O)c(C2CC(C)(N(C)C)C(OC(C)=O)C(C)O2)cc(C2CC(N(C)C)C(O)C(C)O2)c1C3=O` (centres undefined), the TGI (UO-31 renal) was 0.0106 µM, the TGI (SW-620 colon) was 0.0369 µM and the TGI (NCI-H460 lung) was 0.0129 µM. For the same compound, the TGI (SN12C renal) was 0.0134 µM, the TGI (OVCAR-4 ovarian) was 0.00888 µM and the TGI (MDA-MB-435) was 10.3 nM. It also gave a TGI (CCRF-CEM leukemia) of 0.379 µM, a TGI (HOP-62 NSCLC) of 0.0121 µM and a TGI (OVCAR-5 ovarian) of 0.488 µM. The TGI (NCI-H23 lung) was 0.00871 µM and the TGI (MOLT-4 leukemia) was 0.049 µM.

In the case of `CCCCC(CC)C(=O)Oc1ccc(C(=O)c2ccccc2)c(O)c1` (centres undefined), the TGI (UO-31 renal) is reported as over 100 µM, the TGI (SW-620 colon) is reported as over 100 µM and the TGI (NCI-H460 lung) is reported as over 100 µM. The TGI (SN12C renal) was over 100 µM, the TGI (OVCAR-4 ovarian) was over 100 µM and the TGI (MDA-MB-435) was over 100000 nM. The TGI (CCRF-CEM leukemia) was over 100 µM, the TGI (HOP-62 NSCLC) was over 100 µM and the TGI (OVCAR-5 ovarian) was over 100 µM. It also gave a TGI (NCI-H23 lung) of over 100 µM and a TGI (MOLT-4 leukemia) of over 100 µM.

`c1ccc(-c2cc3nc4ccccc4nc3cc(-c3ccccc3)[nH][nH]2)cc1` gave a TGI (UO-31 renal) of over 100 µM, a TGI (SW-620 colon) of over 100 µM and a TGI (NCI-H460 lung) of over 100 µM. For the same compound, the TGI (SN12C renal) was over 100 µM, the TGI (OVCAR-4 ovarian) was over 100 µM and the TGI (MDA-MB-435) was over 100000 nM. For the same compound, the TGI (CCRF-CEM leukemia) was over 100 µM, the TGI (HOP-62 NSCLC) was 66.9 µM and the TGI (OVCAR-5 ovarian) was over 100 µM. For the same compound, the TGI (NCI-H23 lung) was over 100 µM and the TGI (MOLT-4 leukemia) was over 100 µM.

`O=P1(Oc2ccc(Cl)cc2Cl)Oc2cc3ccccc3cc2O1` showed a TGI (UO-31 renal) of over 100 µM, a TGI (SW-620 colon) of over 100 µM and a TGI (NCI-H460 lung) of over 100 µM. It also gave a TGI (SN12C renal) of over 100 µM, a TGI (OVCAR-4 ovarian) of over 100 µM and a TGI (CCRF-CEM leukemia) of over 100 µM. For the same compound, the TGI (HOP-62 NSCLC) was over 100 µM, the TGI (OVCAR-5 ovarian) was over 100 µM and the TGI (NCI-H23 lung) was over 100 µM. The TGI (MOLT-4 leukemia) was over 71.4 µM.

`C=C(C)[C@@H]1CC[C@]2(C(=O)O)CC[C@]3(C)[C@H](CC[C@@H]4[C@@]5(C)C/C(=C/c6ccco6)C(=O)C(C)(C)[C@@H]5CC[C@]43C)[C@@H]12` was tested, and the GI50 (SW-620 colon) was 2520 nM, the TGI (SW-620 colon) was 6.89 µM and the GI50 (OVCAR-4 ovarian) was 5.9 µM. It also gave a TGI (OVCAR-4 ovarian) of over 100 µM, a GI50 (MDA-MB-435) of 3.55 µM and a TGI (MDA-MB-435) of over 100000 nM. For the same compound, the GI50 (HOP-62 NSCLC) was 2770 nM and the TGI (HOP-62 NSCLC) was 31.3 µM.

With `O=C1c2cc3c(cc2[C@@H]2C(O)[C@H]4O[C@H]4C4CCN1C42)OCO3` (some centres undefined) the TGI (UO-31 renal) was over 37.5 µM, the TGI (SW-620 colon) was over 37.5 µM and the TGI (NCI-H460 lung) was over 37.5 µM. It also gave a TGI (SN12C renal) of over 37.5 µM, a TGI (OVCAR-4 ovarian) of over 37.5 µM and a TGI (CCRF-CEM leukemia) of over 37.5 µM. It also gave a TGI (HOP-62 NSCLC) of over 37.5 µM, a TGI (OVCAR-5 ovarian) of over 37.5 µM and a TGI (MOLT-4 leukemia) of over 37.5 µM.

Compound `CCOC(=O)c1sc2nc(SC)nc3c2c1NC(=O)CN3c1ccc(F)cc1` has a TGI (UO-31 renal) of 46.9 µM, a TGI (SW-620 colon) of over 100 µM and a TGI (NCI-H460 lung) of over 100 µM. The TGI (SN12C renal) was 69.1 µM, the TGI (OVCAR-4 ovarian) was over 100 µM and the TGI (MDA-MB-435) was over 100000 nM. It also gave a TGI (CCRF-CEM leukemia) of 78.4 µM, a TGI (HOP-62 NSCLC) of 33.7 µM and a TGI (OVCAR-5 ovarian) of over 100 µM. It also gave a TGI (NCI-H23 lung) of over 100 µM and a TGI (MOLT-4 leukemia) of over 100 µM.

`C[C@@]12CC[C@@H](O)C[C@@H]1CC[C@H]1[C@H]2CC[C@@]2(C)[C@H](c3ccc(=O)oc3)CC[C@@]12O` showed a GI50 (UO-31 renal) of under 10 nM, a TGI (UO-31 renal) of 0.0147 µM and a GI50 (SW-620 colon) of under 10 nM. The TGI (SW-620 colon) was 0.018 µM, the GI50 (SN12C renal) was under 10 nM and the TGI (SN12C renal) was 0.0272 µM. The GI50 (OVCAR-4 ovarian) was under 0.0124 µM, the TGI (OVCAR-4 ovarian) was 0.0639 µM and the GI50 (MDA-MB-435) was under 0.01 µM. The TGI (MDA-MB-435) was 58.7 nM, the GI50 (HOP-62 NSCLC) was under 10 nM and the TGI (HOP-62 NSCLC) was 0.0156 µM. The GI50 (OVCAR-5 ovarian) was 13.2 nM, the TGI (OVCAR-5 ovarian) was 0.0426 µM and the GI50 (NCI-H23 lung) was under 10 nM. It also gave a TGI (NCI-H23 lung) of 0.0226 µM.

With `Cc1ccc(C(=O)NC2C(=O)NC(C(C)C)C(=O)N3CCCC3C(=O)N(C)CC(=O)N(C)C(C(C)C)C(=O)OC2C)c2c1Oc1c(c(C(=O)NC3C(=O)NC(C(C)C)C(=O)N4CCCC4C(=O)N(C)CC(=O)N(C)C(C(C)C)C(=O)OC3C)c3nc(-c4ccccc4)c(=O)oc3c1C)N2` (centres undefined) the TGI (UO-31 renal) was 0.194 µM and 0.122 µM, the TGI (SW-620 colon) was 12 µM and the TGI (SN12C renal) was 0.0442 µM and 0.312 µM. The TGI (MDA-MB-435) was 19.3 nM, the TGI (CCRF-CEM leukemia) was 0.697 µM and the TGI (HOP-62 NSCLC) was 0.00223 µM. For the same compound, the TGI (OVCAR-5 ovarian) was 0.00918 µM, the TGI (NCI-H23 lung) was 0.0919 µM and the TGI (MOLT-4 leukemia) was 0.0314 µM.

Source: PubChem BioAssay (NCI)
